Experimental data reported in paper PMC4929455 (2016).
Where a SMILES comes first, the peptide text is derived from it.

Assays:
[1] = tested on: T:THF (DNA, mismatch bulge abasic, tetrahydrofuran (THF) abasic analogue at 6 of strand 1, opposite T) TCACCNGTCGTA/TACGACTGGTGA; assay: UV melting at 260 nm; conditions: 100 mM NaCl; 10 mM sodium phosphate pH 7.0, 1 mM EDTA; 5 μM DNA, 5 μM C1
[2] = tested on: T:THF (DNA, mismatch bulge abasic, tetrahydrofuran (THF) abasic analogue at 6 of strand 1, opposite T) TCACCNGTCGTA/TACGACTGGTGA; assay: CD forward titration, ICD at 500 nm; conditions: 100 mM NaCl, 10 mM sodium phosphate pH 7.0, 1 mM EDTA, 15 °C, apparent
[3] = tested on: dU-containing oligodeoxynucleotide 5'-TCA(dU)CGT-3' (DNA, single strand, 2'-deoxyuridine at 4) TCAUCGT; assay: cyanoborohydride trapping, denaturing gel shift; conditions: 100 mM Hepes-K pH 7.3, 50 mM NaB(CN)H3, 18 °C overnight; 10 μM C1; covalent trapping only
[4] = tested on: AP site-containing oligodeoxynucleotide (32P-labeled) (DNA, single strand, natural AP site (from dU by UDG) at 4) TCANCGT; assay: cyanoborohydride trapping, denaturing gel shift; conditions: 100 mM Hepes-K pH 7.3, 50 mM NaB(CN)H3, 18 °C overnight, covalent
[5] = tested on: AP site-containing oligodeoxynucleotide (unlabeled) (DNA, single strand, natural AP site (from dU by UDG) at 4) TCANCGT; assay: ESI-MS / CID of reduced covalent complex; conditions: 100 mM Hepes-K pH 7.3, 50 mM NaB(CN)H3, 37 °C overnight
[6] = tested on: T:A (DNA, duplex) TCACCAGTCGTA/TACGACTGGTGA; assay: CD forward titration, ICD at 500 nm; conditions: 100 mM NaCl; 10 mM sodium phosphate pH 7.0, 1 mM EDTA, 15 °C; apparent; non-specific binding
[7] = tested on: T:A (DNA, duplex) TCACCAGTCGTA/TACGACTGGTGA; assay: UV melting at 260 nm; conditions: 100 mM NaCl; 10 mM sodium phosphate pH 7.0, 1 mM EDTA; 5 μM DNA, 5 μM C1
[8] = tested on: T:AP (DNA, mismatch bulge abasic, natural apurinic/apyrimidinic site (from dU by UDG) at 6 of strand 1, opposite T) TCACCNGTCGTA/TACGACTGGTGA; assay: CD forward titration, ICD at 500 nm; conditions: 100 mM NaCl; 10 mM sodium phosphate pH 7.0, 1 mM EDTA, 15 °C; apparent; corrected for non-specific interactions (uncorrected 44 ± 5)

Row | Compound | ΔTm [1] [°C] | KD ([2]; corrected for non-specific interactions (uncorrected 29 ± 1)) [µM] | binding [3] | binding ([4]; 10 μM C1, ~80% trapped) | binding [5] | KD [6] [µM] | ΔTm [7] [°C] | binding ([4]; 2 mM KWKK) | KD ([2]; corrected for non-specific interactions (uncorrected 35 ± 1)) [µM] | KD [8] [µM]
1 | CNCC#Cc1c(F)ccc2c1/C(=C/c1[nH]ccc1OC)C(=O)N2 | 6.3 | 22 ± 1 | no | yes | yes | 64 ± 3 | 1 | – | – | –
2 | NCCCC[C@H](NC(=O)[C@H](CCCCN)NC(=O)[C@H](Cc1c[nH]c2ccccc12)NC(=O)[C@@H](N)CCCCN)C(=O)O (H-KWKK-OH) | – | – | – | – | – | – | – | yes | – | –
3 | COc1cc[nH]c1/C=C1\C(=O)Nc2ccc(F)c(C#CC3(O)CCNCC3)c21 | – | – | – | – | – | 69 ± 14 | – | – | 28 ± 1 | 28 ± 2
